In publication PMC9607644, “Glycoconjugation of Quinoline Derivatives Using the C-6 Position in Sugars as a Strategy for Improving the Selectivity and Cytotoxicity of Functionalized Compounds” (Molecules, 2022):

Legend:
MCF-7 cells = assay: MTT cytotoxicity assay, MCF-7; assay type: cell-based, human; details: for IC50: Homo sapiens, MCF7, incubation time 72 h; for Selectivity Index (SI) MCF-7: IC50 NHDF-Neo / IC50 MCF-7, 72 h incubation; for inhibition of cell growth at the highest doses, MCF-7: 72 h
Description: An in vitro biological test package was performed for the obtained derivatives. […] The MTT test is a colorimetric method for detecting proliferating cells. It is based on the ability of the enzyme mitochondrial dehydrogenase to convert yellow tetrazole salt (MTT) into purple formazan. The amount of the product formed in the reaction, determined spectrophotometrically, is proportional to the number of living cells.
The in vitro cytotoxicity of the test compounds was determined by the MTT (3-[4,5–dimethylthiazol-2-yl]-2,5-diphenyltetrazolium bromide) test (Sigma-Aldrich, Taufkirchen, Germany) according to the manufacturer’s protocol. At the beginning, for each cell line were determined the optimal seeding densities to ensure exponential growth throughout the experimental period. The confluent layer of cells were trypsinized, collected, and suspended in a growth medium. […] Then, the culture medium was replaced with solutions of different concentrations of test compounds in a fresh medium. Stock solutions of test compounds were prepared in DMSO and diluted to final concentrations with appropriate volumes of the growth medium directly before the experiment. Cells suspended in a medium supplemented with 0.5% DMSO (the amount of DMSO necessary to dissolve the highest dose of the respective sample) were used as a control of the experiment. […] The compound-treated cells were incubated for a further 24–72 h. […] After this time, the MTT dye was carefully removed, and the acquired formazan crystals were dissolved by DMSO (Chempur, Piekary Śląskie, Poland). The proliferation was evaluated by measuring the formazan product’s absorbance at a wavelength of 570 nm with a microplate spectrophotometer (Epoch, BioTek, Winooski, VT, USA). All experiments were conducted in triplicate with four technical repeats for each tested concentration. Results were expressed as the percentage change in the viability of the test cells relative to the untreated control cells and calculated as the inhibitory concentration (IC50). […] The results are expressed as the average value ± standard deviation (SD).

NHDF-Neo cells = assay: Annexin V-FITC/PI apoptosis flow cytometry, NHDF-Neo; assay type: cell-based; details: IC50 dose, 24 h
From the text: This is important information from the point of view of drug design, as it provides detailed information on the cytotoxicity of a compound. Apoptosis is a natural biological process involving programmed cell death and plays an important role in maintaining correct homeostasis between cell proliferation and cell death. This is in contrast to necrosis, which is accompanied by acute inflammation, preceded by cell degradation due to the loss of the integrity of the cell membrane. It is possible to distinguish viable cells from apoptotic and necrotic cell fractions using Annexin V-FITC and Propidium Iodide (PI). Annexin V-FITC labels phosphatidylserine residues that, after the start of apoptosis, are located on the outer surface of the cell membrane, enabling the identification of cells in the early stages of apoptosis. PI binds stoichiometrically to intracellular DNA during late apoptosis and necrosis when the cell membrane has been damaged. This combination allows for the differentiation of early apoptotic (A+/P−), late apoptotic (A+/P+), necrosis (A−/P+), and normal (A−/P−) cells that can be quantified by flow cytometry. The experiments were performed on the HCT-116 and MCF-7 cancer cell lines and the NHDF-Neo healthy cell line. […] The results of the level of apoptosis induction by the tested compounds are presented in Figure 7 and in the Supplementary Materials (Figure S73).
The cell cycle and the type of cell death induced by the test compounds were measured by using flow cytometry according to the manufacturer’s protocol. The cells were seeded into 6-well plates at a density of 3 × 10^5 (HCT-116) or 4 × 10^5 (MCF-7, NHDF-Neo) per well (3 mL) and allowed to attach for 24 h under standard conditions with 5% CO2 at 37 °C. The following day, the medium was removed and cells were treated with solutions of test compounds in fresh medium at a dose equal to their IC50 values. Control cells were grown with fresh medium supplemented with 0.5% DMSO. After 24 h of incubation, the cells were collected by trypsinization. Then, samples were centrifuged (3 min, 2000 rpm, RT) and washed with PBS, after which the cells were centrifuged again (3 min, 2000 rpm, RT) and the supernatant was carefully removed. The resulting precipitate contained cells, which were used for flow cytometry experiments.
The fraction of dead cells after treatment with the test compounds were detected using the FITC Annexin-V Apoptosis Detection Kit with PI (BioLegend, San Diego, CA, USA). First, cells were suspended in 50 μL of cold Annexin-V Binding Buffer (BioLegend, San Diego, CA, USA) and incubated in the dark with 2.5 μL of antibody Annexin-V FITC and 10 μL of propidium iodide (PI) at 37 °C for 20 min. 250 μL of the Annexin-V Binding Buffer was then added and the samples were incubated in the dark on ice for 15 min. Cytometric analyses were performed using an Aria III flow cytometer (Becton Dickinson, Franklin Lakes, NJ, USA) with the FITC configuration (488 nm excitation; emission: LP mirror 503, BP filter 530/30) or PE configuration (547 nm excitation; emission: 585 nm) and at least 10,000 cells were counted.

HCT-116 cells = assay: Annexin V-FITC/PI apoptosis flow cytometry, HCT-116; assay type: cell-based, human; details: IC50 dose, 24 h
From the text: Apoptosis is a natural biological process involving programmed cell death and plays an important role in maintaining correct homeostasis between cell proliferation and cell death. This is in contrast to necrosis, which is accompanied by acute inflammation, preceded by cell degradation due to the loss of the integrity of the cell membrane. It is possible to distinguish viable cells from apoptotic and necrotic cell fractions using Annexin V-FITC and Propidium Iodide (PI). Annexin V-FITC labels phosphatidylserine residues that, after the start of apoptosis, are located on the outer surface of the cell membrane, enabling the identification of cells in the early stages of apoptosis. PI binds stoichiometrically to intracellular DNA during late apoptosis and necrosis when the cell membrane has been damaged. This combination allows for the differentiation of early apoptotic (A+/P−), late apoptotic (A+/P+), necrosis (A−/P+), and normal (A−/P−) cells that can be quantified by flow cytometry.
The cell cycle and the type of cell death induced by the test compounds were measured by using flow cytometry according to the manufacturer’s protocol. […] Control cells were grown with fresh medium supplemented with 0.5% DMSO. After 24 h of incubation, the cells were collected by trypsinization. Then, samples were centrifuged (3 min, 2000 rpm, RT) and washed with PBS, after which the cells were centrifuged again (3 min, 2000 rpm, RT) and the supernatant was carefully removed. The resulting precipitate contained cells, which were used for flow cytometry experiments.
The fraction of dead cells after treatment with the test compounds were detected using the FITC Annexin-V Apoptosis Detection Kit with PI (BioLegend, San Diego, CA, USA). […] 250 μL of the Annexin-V Binding Buffer was then added and the samples were incubated in the dark on ice for 15 min.

Compound	IC50 (MCF-7 cells; MTT) [µM]	Selectivity Index (SI) MCF-7 (MCF-7 cells)	dead cell fraction, NHDF-Neo (NHDF-Neo cells) [%]	apoptotic cells, HCT-116 (HCT-116 cells) [%]	growth inhibitory activity in words, MCF-7 (MCF-7 cells; MTT)	cells in late apoptosis, NHDF-Neo (NHDF-Neo cells) [%]	necrotic cells, NHDF-Neo (NHDF-Neo cells) [%]	inhibition of cell growth at the highest doses, MCF-7 (MCF-7 cells; MTT) [%]	normal cells remained, NHDF-Neo (NHDF-Neo cells) [%]	apoptosis induction in words, HCT-116 (HCT-116 cells)
O[C@@H]1[C@@H](O)[C@@H](O[C@H]2O[C@H](Cn3cc(COc4cccc5cccnc45)nn3)[C@@H](O)[C@H](O)[C@H]2O)O[C@H](Cn2cc(COc3cccc4cccnc34)nn2)[C@H]1O [Compound D-2]	34 ± 0.95	2.08	51	87						
OC[C@H]1O[C@@H](n2cc(COc3cccc4cccnc34)nn2)[C@H](O)[C@@H](O)[C@@H]1O [Compound E-2, reference compound]	185 ± 2.21	1.26			practically did not affect the cell viability	57	9			
CC(=O)OC1O[C@H](Cn2cc(COc3cccc4cccnc34)nn2)[C@@H](OC(C)=O)[C@H](OC(C)=O)[C@H]1OC(C)=O (stereo partly shown) [Compound A-1]	52.8 ± 0.75	2.46		29				100	98	
OC1O[C@H](Cn2cc(COc3cccc4cccnc34)nn2)[C@@H](O)[C@H](O)[C@H]1O (stereo partly shown) [Compound A-2]	54.9 ± 8.71	5.78		46				100	95	
CC(=O)OC[C@H]1O[C@@H](n2cc(COc3cccc4cccnc34)nn2)[C@H](OC(C)=O)[C@@H](OC(C)=O)[C@@H]1OC(C)=O [Compound E-1, reference compound]	57.7 ± 3.32	0.96				61	14	100		did not induce apoptosis
